The text below walks through data of US12054471B2, “Thiocycloheptyne derivatives and their use” (Cristal Delivery B.V., priority 2018, dated 2024).

Data set [1] is described as follows: Reaction kinetics of model click reaction with benzylazide, measured by NMR (CDCl3). The data set is classed as physicochemical. The method, then: The alkyne (TMTSHI or BCN-OH) was reacted with 1.3 eq benzylazide and reaction kinetics were measured using NMR (CDCl3). Conversion of TMTHSI with benzyl azide reached 79% after 225 seconds, the reaction with BCN-OH took about 40-fold longer (9312 seconds). The reaction conversion (%) is calculated based on triazole signals, taking the plateau of triazole signal at the end of reaction as 100% level=when all TMTHSI or BCN-OH fully reacted with benzylazide. The results of the measurements are included in FIG. 17A.

The nature of data set [2]: Reaction kinetics with benzylazide monitored by QTOF-ESI mass spectrometry to determine rate constant kt. The conditions noted are these: 1.0 eq benzylazide, ACN/water/acetic acid (3:1:0.01%), MS. Type of data set: physicochemical. The method, then:
The kt value for the conversion of benzylazide with BCN-OH and TMTHSI was investigated by monitoring the reactions via mass spectrometry. In this study, QTOF mass spectrometry with an ESI source coupled to it, was utilized as a method of measurements. In detail, the alkyne (TMTSHI or BCN-OH in ACN/water/acetic acid (3:1:0.01%) was reacted with 1.0 eq benzylazide and reaction kinetics were measured using MS. The results of the measurements are included in FIG. 55. The measured kt value for TMTHSI in the reaction with benzylazide is 0.83 M^−1S^−1, which is approximately 7 times faster than BCN-OH (0.12 M^−1S^−1).

Data set [3] in a line: Storage stability as a powder, checked by 1H-NMR and LC/MS. The data set is classed as physicochemical. The conditions noted are these: stored as a powder at both light and dark locations under atmospheric pressure; 1H-NMR and LC/MS (SC_BASE). The source says:
TMTHSI was proven to be stable during storage.

The conditions of data set [4]: Dommerholt et al.; cited from earlier work.

Structures are written as SMILES. Where only a bound is given, the exact number is not on record here.

For `OCC1[C@H]2CCC#CCC[C@@H]12` (some centres unmarked) [BCN-OH, reference compound], in data set [1] (1.3 eq benzylazide, CDCl3, NMR), the “reaction time relative to TMTHSI (fold longer)” value is “about 40 fold” and the “time to reach 79% conversion with benzyl azide” value is 9312 s. Also, the “kt value in the reaction with benzylazide” value in data set [2] came to 0.12 M^−1S^−1.
Take `CC1(C)C#CC(C)(C)CS(=N)(=O)C1` [Compound 3, 1-imino-3,3,6,6-tetramethyl-4,5-didehydro-2,3,6,7-tetrahydro-1H-1λ^6-thiepine 1-oxide]: in data set [3], the “compound still in tact after storage” value is recorded as ≥ 10 months. For the same molecule, the “time to reach 79% conversion with benzyl azide” value in data set [1] (1.3 eq benzylazide, CDCl3, NMR) amounted to 225 s. Moreover, the “Conversion with benzyl azide” value in data set [1] (after 225 seconds, 1.3 eq benzylazide, CDCl3, NMR, based on triazole signals) was 79%. The “comparison of reaction kinetics with BCN-OH (FIG. 17A)” value in data set [1] (reaction with benzylazide, NMR) is reported as “significantly faster than BCN-OH”. In data set [2], the “kt value in the reaction with benzylazide” value is reported as 0.83 M^−1S^−1 and the “rate relative to BCN-OH (times faster)” value is “approximately 7 times”.
Turning to `CC1(C)C#CC(C)(C)CS(=O)(=NC(=O)ON2C(=O)CCC2=O)C1` [Compound 12, 2,5-dioxopyrrolidin-1-yl (3,3,6,6-tetramethyl-1-oxido-4,5-didehydro-2,3,6,7-tetrahydro-1λ^6-thiepan-1-ylidene)carbamate], the “compound still in tact after storage” value in data set [3] was ≥ 4 months.
As for `CC1(C)C#CC(C)(C)CSC1` [TMTH, 3,3,6,6-tetramethylthiacycloheptyne], the “stability of TMTH” value in data set [4] is reported as “poor stability”.
